In PubChem BioAssay (NCI) one finds TGI and GI50 data, which are given here for 18 compounds.

What all share (assay): NCI anticancer screen, dose series, 48 h
In experiment [1] the test system is HT29 colon.
For experiment [2], the system named is RPMI-8226 leukemia.
For experiment [3], the system named is KM12 colon.
Experiment [4] has as its system U251 CNS.
In experiment [5] the test system is SK-MEL-5 melanoma.
In experiment [6] the test system is DMS 273 small cell lung.
Experiment [7] relates to HL-60(TB) leukemia.
In experiment [8] the test system is KM20L2 colon.

Several values for one entry are separate records, joined by “and”; a condition that tells them apart may be missing. Identical values can stand only once.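 Compound exposure: 48 hours, 5 concentrations, 96-well plates. The concentration for 50% growth inhibition is given as GI50. TGI: total growth inhibition.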

For the compound `COC(=O)C(CCS(=O)(=O)CC(=O)C(=O)Nc1cccc(C(C)=O)c1)C(=O)OC`, the TGI in experiment [1] was greater than 100 µM; in experiment [2], greater than 69.4 µM; in experiment [3] it was greater than 100 µM; in experiment [4], greater than 100 µM; in experiment [5], greater than 100 µM; in experiment [6], greater than 100 µM. For the same compound, the TGI in experiment [7] and in experiment [8] was greater than 100 µM throughout.

Turning to `O=C1NC(=S)NC(=O)C1=Cc1cc2c(cc1[N+](=O)[O-])OCO2`, the TGI in experiment [2], in experiment [3], in experiment [4], in experiment [5], in experiment [6] and in experiment [7] was greater than 100 µM each time. The same compound came in with a TGI in experiment [8] greater than 100 µM.

As for `CCCN(CCCCC(NC(C)=O)C(=O)NCc1ccccc1)C(=O)NCCCl` (stereo unspecified), the TGI in experiment [1], in experiment [2], in experiment [3], in experiment [4], in experiment [5] and in experiment [6] was greater than 100 µM in each case. The TGI in experiment [7] and in experiment [8] was greater than 100 µM each time.

In the case of `CCCCCCCCCCC/C(=N/O)c1ccc(O)c2ncccc12`, the TGI in experiment [1] is 17.2 µM; in experiment [3] it was greater than 100 µM; in experiment [4], 23.5 µM; in experiment [5], 4.18 µM; in experiment [6], 4.79 µM; in experiment [8] it was 17.6 µM.

As to `N#CC(C(=O)/C(=N/N)C(C#N)c1ccc(Cl)cc1)c1ccc(Cl)cc1` (stereo unspecified), the TGI in experiment [1], in experiment [2], in experiment [3], in experiment [4], in experiment [5] and in experiment [7] was greater than 100 µM throughout. Also, the TGI in experiment [8] is greater than 100 µM.

For the compound `CC(C)N(C(=O)C12C3C4C5(C#N)C3C1(I)C5C42I)C(C)C` (stereo unspecified), the TGI was greater than 100 µM in experiment [1]; greater than 67.2 µM in experiment [2]; greater than 100 µM in experiment [3]; greater than 100 µM in experiment [4]; greater than 100 µM in experiment [5]; greater than 100 µM in experiment [6]. Moreover, the TGI was greater than 63.6 µM in experiment [7] and greater than 100 µM in experiment [8].

On to `Cc1ccccc1-c1c(N)nc(NC#N)nc1C(=O)Nc1ccccc1`, for which the TGI in experiment [1], in experiment [2], in experiment [3], in experiment [4], in experiment [5] and in experiment [6] was greater than 100 µM in each case. In experiment [8], this compound gave a TGI greater than 100 µM.

As to `Cc1cccc(C(C)(C)C)c1NC(=O)C(=O)C(C(=O)/C=C\c1ccccc1)C1OC(=O)c2ccccc21` (stereo unspecified), the TGI in experiment [1], in experiment [2], in experiment [3], in experiment [4], in experiment [5] and in experiment [7] was greater than 100 µM in each case. This compound also displayed a TGI in experiment [8] greater than 100 µM.

For the compound `CCOc1ccc(N=Cc2cccc3cccnc23)cc1`, the TGI in experiment [1], in experiment [2], in experiment [3], in experiment [4], in experiment [5] and in experiment [6] was greater than 100 µM throughout. In addition, the results for the TGI in experiment [7] and in experiment [8] were 62.2 µM and greater than 100 µM, respectively.

Consider `CC(O)/C=C/C(CCC(C)CO)C(C)C` (stereo unspecified), for which the TGI in experiment [1], in experiment [2], in experiment [3], in experiment [4], in experiment [5] and in experiment [6] was greater than 100 µM throughout. This compound displayed a TGI in experiment [7] greater than 100 µM.

As to `O=C1C=C[C@@]23CC1C(O)C[C@H]2C=Cc1ccccc13` (stereo partly specified), the TGI in experiment [1], in experiment [2], in experiment [3], in experiment [5], in experiment [7] and in experiment [8] was greater than 100 µM in each case.

Turning to `CCCCCCCCCCCCCCCCCC(=O)OCC(CN(C)CCN(C)C)OC(=O)CCCCCCCCCCCCCCCCC` (stereo unspecified), the TGI in experiment [1], in experiment [2], in experiment [3], in experiment [4], in experiment [5] and in experiment [6] was greater than 100 µM throughout. The TGI in experiment [8] was greater than 100 µM.

`CSc1nc(NC2OCC(OC(C)=O)C(OC(C)=O)C2OC(C)=O)c2c(OC(C)=O)c(C)c(=O)oc2n1` (stereo unspecified): the TGI in experiment [1], in experiment [2], in experiment [3], in experiment [4], in experiment [5] and in experiment [7] was greater than 100 µM throughout. In addition, in experiment [8], the TGI is greater than 100 µM.

In the case of `Cc1c(/C=N/NS(=O)(=O)c2ccccc2)no[n+]1[O-]`, the TGI in experiment [1], in experiment [2], in experiment [3], in experiment [4], in experiment [5] and in experiment [7] was greater than 100 µM throughout. The same compound had a TGI in experiment [8] greater than 100 µM.

Consider `COc1ccc(/C=N/N=C(\N)NO)cc1OC`, for which the TGI was greater than 100 µM in experiment [1]; greater than 100 µM in experiment [2]; greater than 100 µM in experiment [3]; greater than 100 µM in experiment [4]; 58.3 µM in experiment [5]; greater than 100 µM in experiment [6]. Further, the TGI in experiment [7] and in experiment [8] was greater than 100 µM throughout.

As to `[Cl][Bi]([O]c1ccccn1)[O]c1ccccn1`, the GI50 was greater than 100 µM in experiment [3]; greater than 100 µM in experiment [4]; 40.2 µM in experiment [5]; greater than 100 µM in experiment [6]; greater than 100 µM in experiment [8]. Further, the TGI in experiment [3], in experiment [4], in experiment [5], in experiment [6] and in experiment [8] was greater than 100 µM each time.

Consider `O=C1C(Cl)=C(Cl)C(=O)N1C1C2CC3CC(C2)CC1C3` (stereo unspecified), for which the TGI was greater than 100 µM in experiment [1]; greater than 80.5 µM in experiment [2]; greater than 100 µM in experiment [4]; greater than 100 µM in experiment [5]; greater than 100 µM in experiment [6]; 79.4 µM in experiment [7]. The compound further displayed a TGI in experiment [8] greater than 100 µM.

As to `O=C1c2cccc3cc([N+](=O)[O-])cc(c23)C(=O)N1CCNCCNCCNCCN1C(=O)c2cccc3cc([N+](=O)[O-])cc(c23)C1=O`, the TGI in experiment [3] was 0.668 µM and 4.47 µM; in experiment [4], 0.0206 µM; in experiment [5] it was 1.52 µM and 0.174 µM; in experiment [6] it was 0.177 µM and 0.23 µM; in experiment [8] it was 0.576 µM. In experiment [5], the GI50 was 0.0176 µM.
